# Results as given in US7556807B2, “Signal peptides, nucleic acid molecules and methods for treatment of caries” (priority 2001, dated 2009).
# Key:
# [1] = tested on: S. mutans comC deficient cells; assay: Acid resistance tolerance of S. mutans comC deficient cells with added synthetic CSP (FIG. 12); assay type: cell-based, Streptococcus mutans; conditions: synthetic CSP added to culture of comC mutant; compared to parent strain NG8
# Description: The ability of CSP [SEQ ID NO:11] to promote acid resistance tolerance is determined by measuring the cell survival rate of S. mutans when exposed to acidic pH. In one example, S. mutans are first grown in batch culture to assay acid tolerance response in ‘standard’ log- and stationary-phase cells by using a modification of methods described previously by Svensäter et al. Oral Microbiol. Immunol., 12:266-73. Mid-log-phase cells are obtained by transferring one volume of overnight culture into nine volumes (1:10) of fresh TYG medium (pH 7.5) and incubated at 37° C. with 5% CO2 for 2 hours. These cells are then collected by centrifugation at 8,000×g for 10 min and resuspended in 2 ml of fresh TYG (pH 5.5) at various cell densities as determined by O.D600. The cells are induced for acid adaptation by incubation at pH 5.5 for 2 h at 37° C. with 5% CO2. The adapted log-phase cells are then exposed to the killing pH. Killing pH is pre-determined by incubating unadapted, mid-log phase cells in TYG medium at pH values from 6.0 to 2.0. Stationary-phase cells are prepared by re-suspending late-log phase cells in TY medium (tryptone-yeast extract) without glucose. […] Adaptation of both log- and stationary-phase cells to acidic pH is determined by measuring the ability of bacterial cells to survive a killing pH for 3 h. […]
# [2] = tested on: S. mutans wild-type UA159; assay: S. mutans acid resistance assay (growth in THYE at pH 7.5 and pH 5.5); assay type: cell-based, Streptococcus mutans; conditions: 5 μg/ml of peptide analog; for Growth (pH 7.5): THYE pH 7.5; for Acid resistance (pH 5.5): growth in THYE pH 5.5
# Description: The effect of peptides on acid tolerance was evaluated by assessment of growth in THYE at pH 7.5 and pH 5.5. Overnight S. mutans wild-type UA159 cells were diluted (1:20) with prewarmed THYE broth and incubated at 37° C. in air with 5% CO2 until an OD600 of approximately 0.4 was reached. A 20-fold dilution was made into 400 μl of either THYE pH 7.5 or THYE pH 5.5 broth containing different concentrations (0, 0.1, 0.5, 2, and 5 μg per ml) of peptide analogs and added in the individual wells of a 100-well Bioscreen C plate in triplicate. Wells without cells were used as blank controls. A Bioscreen microbiology reader (Labsystems, Helsinki, Finland) was employed to continuously grow cells and measure cell growth for 16 h at 37° C. Measurements were taken every 20 min with shaking to prevent cell aggregation.
# [3] = tested on: S. mutans wild-type UA159; assay: S. mutans biofilms formed on polystyrene microtiter plates (b), SDM-glucose, safranin (first study); assay type: cell-based, Streptococcus mutans; conditions: 5 μg/ml of peptide analog; ↓ = reduced biomass compared to biofilm grown in presence of wild-type CSP
# Description: Biofilms were developed in 96-well polystyrene microtiter plates. […] Wells without cells were used as blank controls. […] After the incubation, the planktonic cells were carefully removed and the plates were air dried overnight. The plates were then stained with 0.01% (wt/vol) safranin for 10 min, rinsed with sterile distilled water and air dried. Biofilms were quantified by measuring the absorbance of stained biofilms at 490 nm with a microplate reader (model 3550; Bio-Rad Laboratories, Richmond, Calif.).
# [4] = tested on: S. mutans comC null mutant; conditions: exogenous addition of synthetic CSP; Li et al., 2002; cited from earlier work
# [5] = tested on: S. mutans comD null mutant; assay: Genetic transformation of S. mutans comD null mutant in presence of H1; assay type: cell-based, Streptococcus mutans; conditions: different concentrations of H1
# Excerpt: An S. mutans UA159 comD null mutant was constructed by a PCR-based deletion strategy involving restriction-ligation and allelic replacement as described previously (Lau et al., 2002). The primers used to construct and confirm the S. mutans comD deletion mutant were P1-HK13 (5′-[…]-3′; SEQ ID NO:52), P2-HK13 (5′-[…]-3′; SEQ ID NO:53), P3-HK13 (5′-[…]-3′; SEQ ID NO:54), P4-HK13 (5′-AGATTATCATTGGC GGAAGCG-3′; SEQ ID NO:55), Erm-19 (5′-[…]-3′; SEQ ID NO:56), and Erm-20 (5′-[…] TAGAAT-3′; SEQ ID NO:57).
# To determine if the peptide analogs had any impact on the development of genetic competence, S. mutans UA159 wild-type cells were assayed for genetic transformation. Overnight cultures of S. mutans UA159 were diluted (1:20) with prewarmed THYE broth and incubated at 37° C. in air with 5% CO2 until an optical density (OD) of approximately 0.1 at 600 nm was reached. The culture was then divided into six aliquots containing 1 μg/ml of plasmid pDL289 and different concentrations (0, 0.1, 0.5, 2, and 5 μg per ml) of peptide analogs. […] Total recipient cells were counted by spreading serial dilutions on THYE agar plates without antibiotic. Transformation efficiency was expressed as the percentage of kanamycin resistant transformants over the total number of recipient cells.
Substance,Survival of low pH challenge by comC mutant [1],Growth (pH 7.5) [2],Acid resistance (pH 5.5) [2],Bioflim formation (SDM-glucose) [3],Biofilm phenotype of comC defective mutant [4],Effect of H1 on genetic competence in comD null mutant [5]
"SGSLSTFFRLFNRSFTQALGK (MKKTLSLKNDFKEIKTDELEIIIGGSGSLSTFFRLFNRSFTQALGK; Streptococcus mutans) [CSP, reference compound]",restored the ability of the mutant to survive a low pH challenge,↓growth,growth,no effect,restores the wild-type phenotype,
"H1: S. mutans CSP analog, 4th residue removed from C′ (SGSLSTFFRLFNVSFTQALGK; D2 peptide analog)",,no effect,significant decrease in cell growth,no effect,,ComD-dependent process
